The conditions of data set [1]: comparison value for cisplatin, within 3 hours; cited from earlier work.
In data set [2] the test system is human breast carcinoma cell line MT-3. Put plainly: Efficacy in mice: MT-3 breast xenografts on nude mice. The following applies: 4 mg/kg/inj. weekly i.v.; treated tumors divided with control tumors; Cisplatin at day 31, LiPlaCis at day 26. The format is in vivo, NMRI nude female mice. On the procedure:
NMRI nude female mice (6-8 weeks) were inoculated subcutaneously into the left flank with 1*10^7 cells of the human breast carcinoma cell line MT-3. Only mice carrying exponentially growing tumors were selected for the study. […] Tumor growth was assessed three times a week by measuring two perpendicular diameters and tumor growth was normalized for differing starting sizes by calculating relative tumor volume. Body weight was measured three times a week. Blood samples were taken four days after the first injection to estimate white blood cells and thrombocytes by Coulter counter.

The values that follow come from patent US11207269B2, “Medical use of sPLA2 hydrolysable liposomes” (priority 2009, dated 2021).

The structures appear in SMILES notation.

Take `N.N.[Cl][Pt][Cl]` [Cisplatin, cisplatin]: the urinary excretion result in data set [1] is on record as “above 90%”. Also, the “Optimum T/C (%) [at day]” value in data set [2] is reported as 71%.
